In paper PMC8058163 (Clinical pharmacology and therapeutics, 2020):
Where “and” joins values, the source holds several entries; their conditions need not be identical. Equal entries are not always repeated. Where two headings read alike, the source gives them in different places. Values belong to the compound of their own block, whether it stands above or below them.

Key:
OAT1 = biological target: T1, OAT1 (Homo sapiens, UniProt Q4U2R8); assay: Transporter inhibition assay, OAT1; format: cell-based; conditions: cell line (HEK293 or MDCKII) stably expressing OAT1
T1 sequence (Q4U2R8 1-563): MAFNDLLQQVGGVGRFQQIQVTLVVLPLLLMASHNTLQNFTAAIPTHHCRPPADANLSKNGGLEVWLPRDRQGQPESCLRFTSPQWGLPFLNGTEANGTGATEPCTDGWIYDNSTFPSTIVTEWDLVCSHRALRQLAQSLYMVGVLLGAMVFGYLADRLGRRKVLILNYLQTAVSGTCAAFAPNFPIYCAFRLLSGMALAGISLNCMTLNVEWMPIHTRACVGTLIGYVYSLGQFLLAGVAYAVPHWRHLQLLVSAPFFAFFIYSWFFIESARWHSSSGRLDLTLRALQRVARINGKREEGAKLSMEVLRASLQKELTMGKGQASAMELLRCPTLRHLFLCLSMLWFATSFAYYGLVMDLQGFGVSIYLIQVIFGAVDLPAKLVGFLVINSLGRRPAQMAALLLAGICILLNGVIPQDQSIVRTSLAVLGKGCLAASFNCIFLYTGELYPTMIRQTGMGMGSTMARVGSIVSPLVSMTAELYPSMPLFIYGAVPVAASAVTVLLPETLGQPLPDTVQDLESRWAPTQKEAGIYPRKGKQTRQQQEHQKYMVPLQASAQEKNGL

all transporters tested = assay: Transporter inhibition assays, summary over the panel; conditions: against all transporters tested
OCT1 = biological target: T2, OCT1 (Homo sapiens, UniProt O15245); assay: Transporter inhibition assay, OCT1
T2 sequence (O15245 1-554): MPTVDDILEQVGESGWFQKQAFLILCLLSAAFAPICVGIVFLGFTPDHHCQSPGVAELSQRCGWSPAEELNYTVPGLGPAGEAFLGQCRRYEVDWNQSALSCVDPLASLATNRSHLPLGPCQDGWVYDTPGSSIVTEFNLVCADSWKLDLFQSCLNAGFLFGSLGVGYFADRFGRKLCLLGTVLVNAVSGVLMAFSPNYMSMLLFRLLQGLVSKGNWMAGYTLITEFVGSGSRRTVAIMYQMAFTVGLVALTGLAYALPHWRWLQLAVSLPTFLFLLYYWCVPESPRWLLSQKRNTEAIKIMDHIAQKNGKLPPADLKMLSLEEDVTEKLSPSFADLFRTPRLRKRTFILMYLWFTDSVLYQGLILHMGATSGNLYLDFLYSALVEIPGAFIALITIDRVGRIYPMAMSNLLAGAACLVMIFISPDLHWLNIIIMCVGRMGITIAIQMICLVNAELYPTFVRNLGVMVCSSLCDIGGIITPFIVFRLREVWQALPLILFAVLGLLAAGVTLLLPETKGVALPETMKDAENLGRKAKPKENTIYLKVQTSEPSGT

MATE2-K = MATE2-K (Homo sapiens, UniProt Q86VL8); assay: Transporter inhibition assay, MATE2-K; format: cell-based; conditions: isolated alkaloids, mean [95% CI], three technical replicates
[1] = Estimated berberine concentrations and parameters for the basic models; conditions: 29.8 mg berberine in a 1-gram capsule / 250 mL

MATE2-K, sequence (Q86VL8 1-566 isoform Q86VL8-3): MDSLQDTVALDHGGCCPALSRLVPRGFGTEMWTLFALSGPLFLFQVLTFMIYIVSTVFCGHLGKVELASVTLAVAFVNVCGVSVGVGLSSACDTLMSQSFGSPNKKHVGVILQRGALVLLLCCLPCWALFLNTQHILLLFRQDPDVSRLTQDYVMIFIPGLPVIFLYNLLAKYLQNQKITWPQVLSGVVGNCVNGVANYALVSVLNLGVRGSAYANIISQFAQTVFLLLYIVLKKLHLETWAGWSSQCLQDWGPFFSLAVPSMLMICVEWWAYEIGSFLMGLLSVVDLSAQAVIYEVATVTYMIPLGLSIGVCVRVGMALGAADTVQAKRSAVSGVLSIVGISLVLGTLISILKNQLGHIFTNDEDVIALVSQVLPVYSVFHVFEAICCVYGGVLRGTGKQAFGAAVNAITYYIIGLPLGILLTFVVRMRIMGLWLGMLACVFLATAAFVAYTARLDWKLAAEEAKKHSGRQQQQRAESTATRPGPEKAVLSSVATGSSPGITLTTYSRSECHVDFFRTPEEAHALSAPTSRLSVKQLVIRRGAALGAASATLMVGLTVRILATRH

SMILES: CN1CCc2cc3c(cc2C1O)OCO3 (stereo not drawn) [Hydrastinine, hydrastinine chloride monohydrate]
inhibition at 100 μM (OAT1): < 20%
IC50 (all transporters tested): ≥ 80 µM

SMILES: COc1ccc2c(c1OC)C(=O)O[C@@H]2[C@H]1c2cc3c(cc2CCN1C)OCO3 [(−)-β-Hydrastine, (1R,9S)-(−)-β-Hydrastine]
IC50 (OCT1; OCT1, isolated alkaloids, mean [95% CI], three technical replicates): 6.6 µM

IC50 (MATE2-K): < 1000 nM and 770 nM
estimated concentration in the gut (Igut) [1]: ~ 350 μM
IC50 (OCT1): 19 µM
SMILES: COc1ccc2cc3[n+](cc2c1OC)CCc1cc2c(cc1-3)OCO2 [Berberine, berberine chloride]
